From patent US9248089B2, “Peptide-based compounds as inhibitors of neurotransmitter secretion” (GRF (WUHAN) BIOTECHNOLOGY INC., priority 2011, dated 2016) come the findings set out here.

Peptide text beside a SMILES is read from it.

In the data set the test system is HEK293 cells. In words: HEK293 cell assay (evaluation of biological degradation, HPLC of supernatant). In kind it is in vitro ADME, Human. Particulars: for Degradation after incubation with HEK293 cells: 37° C., 1.0×10^6 HEK293 cells; for Degradation after incubation with HEK293 cells / Degradation pattern/profile compared with another compound: HPLC condition D; for Degradation pattern/profile compared with another compound: incubation with HEK293 cells. As for the experimental part: The Human Embryonic Kidney 293 (HEK293) cells may be cultured in suspension. After the HEK293 cells are collected, the cells may be washed 3 times with PBS buffer before the assay.
The stock solution of peptide-based compounds may be made by dissolving the compound in PBS buffers or in DMSO. Other solutions or solvents may be used to dissolve the peptide-based compounds for this assay.
2. Add 10 μL of the stock solution of the peptide-based compound prepared above so that the final concentration of the peptide-based compound is around 1/10th of that of the stock.
3. Incubate the resulting mixture at 37° C. for 3, 5, 10, 20, or 30 min.
4. Remove the cells by centrifugation.
5. Collect an aliquot of the supernatant solution (20 μL) and loaded it onto a reverse-phase HPLC column (3.9×150 Nova-Pak C18, Waters, Mass., USA) on an HPLC system (125 solvent module, System Gold, Beckman, Calif., USA). Peptide peaks may be detected at the wavelength of 220 nm (Diode Array Detector module 168, Beckman, Calif., USA).

On to `COC(=O)CC[C@H](NC(C)=O)C(=O)N[C@@H](CCC(=O)OC)C(=O)N[C@@H](CCSC)C(=O)N[C@@H](CCC(N)=O)C(=O)N[C@@H](CCCNC(=N)N)C(=O)N[C@@H](CCCNC(=N)N)C(N)=O` [Compound 1, Ac-Glu(OMe)-Glu(OMe)-Met-Gln-Arg-Arg-NH2] (Ac-E(OMe)E(OMe)MQRR-NH2), for which the “Degradation after incubation with HEK293 cells” value (shortened to “Degradation after incubation”) was “degraded to Compound 2 and at least one new fragment” (3 min incubation); “fully degraded to at least one new fragment” (30 min incubation). Further, for the setting “30 min incubation with HEK293 cells”, the “Detectable Compound 2 as degradation intermediate” value is “No Compound 2 was detectable”.

Regarding “Ac-EEMQRR-NH2 [Compound 2, Ac-Glu-Glu-Met-Gln-Arg-Arg-NH2, reference compound]”, the “Degradation pattern/profile compared with another compound” value is given as “did not give the same degradation pattern as Compound 1”. Also, the “Degradation after incubation” value (10 min incubation) was “degraded to at least two fragments”.

With `COC(=O)CC[C@H](NC(C)=O)C(=O)N[C@@H](CCC(=O)OC)C(=O)N[C@@H](CCSC)C(=O)N[C@@H](CCC(N)=O)C(=O)N[C@@H](CCCNC(=NC(=O)OC(C)(C)C)NC(=O)OC(C)(C)C)C(=O)N[C@@H](CCCNC(=NC(=O)OC(C)(C)C)NC(=O)OC(C)(C)C)C(N)=O` [Compound 3, Ac-Glu(OMe)-Glu(OMe)-Met-Gln-Arg(Boc)2-Arg(Boc)2-NH2], the “Degradation pattern/profile compared with another compound” value was “degraded in the same pattern as Compound 2”. In addition, under “5 min incubation with HEK293 cells”, the “Detectable Compound 2 as degradation intermediate” value is listed as “did not produce detectable intermediacy of Compound 2”. In addition, the “Degradation after incubation” value (5 min incubation) was “degraded to at least two fragments”. The “Degradation after incubation” value (10 min incubation) is “completed degraded to the two fragments”.
